Measured values published in the supplement of paper PMC10307832.

Columns and labels:
Experiment in all cases: relative viability (nuclei count vs DMSO), 5 days (fraction); higher = more cells survive
[1] = compound: COc1cc2nc(N3CCCN(C)CC3)nc(NC3CCN(Cc4ccccc4)CC3)c2cc1OC
Procedure, shortened: (§1)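 Cells of lung cancer lines were placed in 1536-well plates and kept overnight at 37 °C. Pinning then delivered five library-drug doses (not always all listed), spaced by √10, onto plates anchored with vehicle, and the cells were left 5 days without changing medium. One step fixed, permeabilised and stained them with Hoechst, and MetaXpress counted nuclei in 4× images. Viability, as a median over plates, is treated-well nuclei divided by vehicle-well nuclei, with acceptance only at control CV below 25% and at least one doubling.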

AZD6482 = compound: Cc1cc([C@@H](C)Nc2ccccc2C(=O)O)c2nc(N3CCOCC3)cc(=O)n2c1 [AZD6482]
Procedure, shortened: as §1

[2] = compound: COc1cc2nc(N3CCCN(C)CC3)nc(NC3CCN(Cc4ccccc4)CC3)c2cc1OC + CC1(C)CCC(c2ccc(Cl)cc2)=C(CN2CCN(c3ccc(C(=O)NS(=O)(=O)c4ccc(N[C@H](CCN5CCOCC5)CSc5ccccc5)c(S(=O)(=O)C(F)(F)F)c4)cc3)CC2)C1 [Navitoclax] (partner 0.5 µM)
Procedure, shortened: (§2)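 Relative viability equals treated-well nuclei counts divided by vehicle-well nuclei counts. Counts came from 4× images of lung cancer cell lines grown in 1536-well plates for 5 days after pin-tool dosing on the day after seeding. Dosing used one drug alone or a fixed anchor-drug dose plus five library-drug doses (not always all listed) in √10 steps, and values are medians of duplicate plates.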

[3] = compound: COc1cc2nc(N3CCCN(C)CC3)nc(NC3CCN(Cc4ccccc4)CC3)c2cc1OC + COc1cc2c(Oc3ccc(NC(=O)C4(C(=O)Nc5ccc(F)cc5)CC4)cc3F)ccnc2cc1OCCCN1CCOCC1 [Foretinib] (partner 0.25 µM)
Procedure, shortened: as §2

Row | Cell Line | relative viability ([1]; 0.2 µM) | relative viability ([1]; 0.6325 µM) | relative viability ([1]; 2 µM) | relative viability ([1]; 6.325 µM) | relative viability (AZD6482; 0.08 µM) | relative viability (AZD6482; 0.253 µM) | relative viability (AZD6482; 0.8 µM) | relative viability (AZD6482; 2.53 µM) | relative viability (AZD6482; 8 µM) | relative viability ([2]; first compound 0.2 µM) | relative viability ([2]; first compound 0.6325 µM) | relative viability ([2]; first compound 2 µM) | relative viability ([2]; first compound 6.325 µM) | relative viability ([3]; first compound 0.2 µM) | relative viability ([3]; first compound 0.6325 µM) | relative viability ([3]; first compound 2 µM) | relative viability ([3]; first compound 6.325 µM)
1 | ChaGo-K-1 | 0.944 | 0.985 | 1.03 | 0.94 | 1.07 | 0.839 | 1.05 | 0.91 | 0.983 | 0.987 | 1.05 | 1.13 | 0.72 | 1 | 0.929 | 0.941 | 0.907
2 | COR-L 105 | 0.868 | 1.08 | 0.793 | 0.621 | 0.825 | 0.904 | 0.874 | 0.577 | 0.801 | 0.925 | 0.749 | 0.938 | 0.486 | 1.06 | 1.27 | 1.13 | 0.921
3 | NCI-H1975 | 0.974 | 0.999 | 1.15 | 1 | 0.853 | 0.84 | 0.939 | 0.652 | 0.573 | 1.2 | 1.18 | 1.21 | 1.05 | 0.972 | 0.97 | 1 | 0.955
4 | Calu-6 | 0.968 | 0.942 | 1.09 | 0.913 | 0.951 | 0.938 | 0.992 | 0.824 | 0.875 | 0.84 | 0.809 | 0.763 | 0.602 | 0.867 | 0.865 | 0.983 | 0.903
5 | NCI-H1993 | 0.879 | 1.18 | 0.912 | 0.905 | 0.68 | 0.792 | 0.631 | 0.557 | 0.676 | 0.919 | 0.97 | 1.04 | 0.991 | 0.801 | 0.735 | 0.756 | 0.912
6 | RERF-LC-KJ | 0.995 | 0.977 | 1.04 | 0.912 | 0.875 | 0.888 | 0.784 | 0.878 | 0.763 | 0.94 | 0.884 | 0.926 | 0.72 | 0.905 | 0.927 | 0.904 | 0.857
7 | NCI-H23 | 0.975 | 0.962 | 1.05 | 0.927 | 0.967 | 0.861 | 1 | 0.61 | 0.624 | 0.757 | 0.882 | 1.02 | 0.722 | 0.914 | 1.06 | 1.12 | 0.918
8 | HCC-366 | 1.01 | 1.03 | 0.968 | 1.01 | 0.975 | 0.979 | 0.996 | 0.885 | 0.827 | 1.04 | 1.12 | 1.21 | 1.05 | 0.916 | 0.966 | 0.906 | 0.945
9 | EMC-BAC-2 | 1.14 | 0.981 | 0.996 | 1.04 | 0.976 | 0.898 | 1.01 | 0.722 | 0.748 | 1.16 | 1.14 | 1.14 | 1.17 | 0.956 | 0.973 | 1.05 | 1.01
10 | NCI-H2405 | 1.03 | 1.08 | 1.13 | 0.989 | 0.749 | 0.672 | 1.03 | 0.631 | 0.599 | 0.829 | 0.826 | 0.84 | 0.728 | 1.05 | 1 | 1.06 | 1.07
11 | NCI-H1944 | 1.01 | 1 | 0.745 | 0.902 | 0.92 | 0.836 | 0.946 | 0.685 | 0.735 | 1.1 | 1.02 |  | 0.982 | 0.882 | 0.867 | 0.862 | 0.807
12 | EPLC-272H | 0.918 | 1 | 1.2 | 0.783 | 0.778 | 0.71 | 0.888 | 0.535 | 0.596 | 1.08 | 1.06 | 1.22 | 1.02 | 0.783 | 0.723 | 0.847 | 0.686
13 | EBC-1 | 0.948 | 0.9 | 0.976 | 0.827 | 0.881 | 0.923 | 0.855 | 0.467 | 0.449 | 0.408 | 0.386 | 0.382 | 0.165 | 0.1 | 0.117 | 0.114 | 0.107
14 | NCI-H1915 | 0.978 | 0.908 | 1.06 | 0.973 | 0.996 | 0.897 | 1.09 | 0.893 | 1.01 | 0.805 | 0.772 | 0.843 | 0.797 | 1.05 | 1.01 | 1.1 | 1.12
15 | NCI-H596 | 0.969 | 1.19 | 0.964 | 0.836 | 0.844 | 0.91 | 0.92 | 0.909 | 0.929 | 1.03 | 0.851 | 0.949 | 0.821 | 0.847 | 0.902 | 0.78 | 0.76
16 | NCI-H322M | 0.856 | 1.09 | 0.9 | 0.854 | 0.847 | 0.822 | 0.838 | 0.495 | 0.633 | 1.12 | 1.12 | 1.19 | 1.21 | 0.899 | 0.94 | 1.05 | 0.923
17 | NCI-H1299 | 0.984 | 1.03 | 1.06 | 0.97 | 0.998 | 1.07 | 1.14 | 0.914 | 1.02 | 1.07 | 1.04 | 1.09 | 1.02 | 1.07 | 1.07 | 1.13 | 1.06
18 | NCI-H2228 | 0.9 | 1.12 | 1.07 | 0.753 | 0.745 | 0.965 | 1.17 | 0.775 | 0.901 | 0.703 | 0.742 | 0.797 | 0.415 | 1.02 | 0.711 | 0.729 | 0.499
